{"source": "patent US4668703A", "about": "“γ-allenyl-γ-aminobutyric acids” (Syntex (U.S.A.) Inc., priority 1985, dated 1987)", "key": {"[1]": {"assay": "Toxicity test (acute, oral, mouse)", "type": "in vivo", "conditions": "mouse, in vivo, po; male mice, CMC vehicle, observed for 21 days", "protocol": "(§1) 4-amino-5,6-heptadienoic acid prepared in CMC vehicle was administered once daily to groups of 6 male mice at doses of 0, 62.5, 125, 250 and 500 mg/Kg. […] Therefore, the LD50 (acute, oral, mouse) for 4-amino-5,6-heptadienoic acid is greater than 500 mg/Kg."}, "mouse": {"test_system": "mouse", "assay": "Toxicity test (acute, oral, mouse)", "type": "in vivo", "conditions": "male mice, once daily, 62.5, 125, 250 and 500 mg/Kg, observed for 21 days", "protocol": "as §1"}, "N. Brasiliensis": {"test_system": "N. Brasiliensis", "assay": "N. Brasiliensis assay, third larval stage", "conditions": "50 μg/ml, 37° C., control 100%, read-out: Percent Viable", "protocol": "The compound was tested at 50 μg/ml against the third larval stage of N. Brasiliensis at approximately 50 L3 /well; this mixture was incubated at 37° C. for total of 7 days. Activity of the compound was checked on days 1, 4. and 7 post-inoculation."}, "C. elegans": {"test_system": "C. elegans", "assay": "C. elegans assay", "conditions": "Caenorhabditis elegans, read-out: % Active", "protocol": "The compounds tested were dissolved in DMSO at 10 mg/ml to give sample stock solutions. During assay, 1 ml M9 buffer (6 g Na2 HPO4, 3 g KH2 PO4, 5 g NaCl, and 0.25 g MgSO4 H2 O per liter) was placed in each of the 24-wells in a tissue culture plate. 10 μl of sample stock solution was added respectively to each of 23 wells. The remaining well served as drug-free control.\nAt time 0, 1 drop of C. elegans suspension was dropped into each well (25-50 adults). At 1 hour, the number of active worms versus total in each well was recorded."}, "[2]": {"test_system": "γ-aminobutyric acid transaminase", "conditions": "cited from earlier work"}, "[3]": {"test_system": "brain level of γ-aminobutyric acid", "conditions": "in animals; cited from earlier work"}}, "note": "Counter-ions that a name gives are not always drawn. Like-named read-outs stand apart in the source and are kept apart here."}
{"molecule": "C=C=CC(N)CCC(=O)O", "note": "(stereo not shown) [4-amino-5,6-heptadienoic acid]", "values": [{"measurement": "LD50 at 504 h", "setting": "[1]", "result": "> 500", "unit": "mg/kg"}, {"measurement": "deaths", "setting": "mouse", "result": "no deaths"}]}
{"molecule": "C=C=CC(N)CCC(=O)OCCCCCCCC", "note": "(stereo not shown) [Octyl 4-amino-5,6-heptadienoate para-toluene sulfonic acid salt]", "values": [{"measurement": "viability at 50 µg/mL", "setting": "N. Brasiliensis; 24 h, day 1", "result": 64, "unit": "%"}, {"measurement": "viability at 50 µg/mL", "setting": "N. Brasiliensis; 96 h, day 4", "result": 0, "unit": "%"}, {"measurement": "viability at 50 µg/mL", "setting": "N. Brasiliensis; 168 h, day 7", "result": 0, "unit": "%"}, {"measurement": "activity at 100 µg/mL", "setting": "C. elegans; active worms versus total at 1 hour, 10 μl of 10 mg/ml DMSO stock added to 1 ml M9 buffer, control 100%", "result": 45, "unit": "%"}]}
{"molecule": "C=C=C(C)C(N)CCC(=O)OCCCCCCCC", "note": "(stereo not shown) [Octyl 4-amino-5-methyl-5,6-heptanoate, octyl-4-amino-5-methyl-5,6-heptadienoate para-toluene-sulfonic acid salt]", "values": [{"measurement": "activity at 100 µg/mL", "setting": "C. elegans; 1 h", "result": 25, "unit": "%"}]}
{"molecule": "C#CC(N)CCC(=O)O", "note": "(stereo not shown) [γ-acetylenic]", "values": [{"measurement": "irreversible inhibitors of γ-aminobutyric acid transaminase", "setting": "[2]", "result": "potent irreversible inhibitors"}, {"measurement": "increase of the brain level of γ-aminobutyric acid", "setting": "[3]", "result": "significantly increase"}]}
{"molecule": "NC(CF)CCC(=O)O", "note": "(stereo not shown) [γ-monofluoromethyl-γ-aminobutyric acid]", "values": [{"measurement": "irreversible inhibitors of γ-aminobutyric acid transaminase", "setting": "[2]", "result": "potent irreversible inhibitors"}, {"measurement": "increase of the brain level of γ-aminobutyric acid", "setting": "[3]", "result": "significantly increase"}]}
{"molecule": "C=CC(N)CCC(=O)O", "note": "(stereo not shown) [γ-vinyl-γ-aminobutyric acid]", "values": [{"measurement": "irreversible inhibitors of γ-aminobutyric acid transaminase", "setting": "[2]", "result": "potent irreversible inhibitors"}, {"measurement": "increase of the brain level of γ-aminobutyric acid", "setting": "[3]", "result": "significantly increase"}]}
